Data on ten molecules can be found in publication PMC8877008, “Synthesis and Structure–Activity Relationship Studies of Benzimidazole-4,7-dione-Based P2X3 Receptor Antagonists as Novel Anti-Nociceptive Agents” (Molecules, 2022).

Some results are limits rather than exact numbers.

A short description of data set [1]: Metabolic stability in microsomal fraction, human. The format is in vitro ADME. The note with it: Table 1.
Another data set deals with T1, hP2X3R (Homo sapiens, UniProt P56373).
T1 construct: expressed in transfected cells
T1 sequence (P56373 1-397): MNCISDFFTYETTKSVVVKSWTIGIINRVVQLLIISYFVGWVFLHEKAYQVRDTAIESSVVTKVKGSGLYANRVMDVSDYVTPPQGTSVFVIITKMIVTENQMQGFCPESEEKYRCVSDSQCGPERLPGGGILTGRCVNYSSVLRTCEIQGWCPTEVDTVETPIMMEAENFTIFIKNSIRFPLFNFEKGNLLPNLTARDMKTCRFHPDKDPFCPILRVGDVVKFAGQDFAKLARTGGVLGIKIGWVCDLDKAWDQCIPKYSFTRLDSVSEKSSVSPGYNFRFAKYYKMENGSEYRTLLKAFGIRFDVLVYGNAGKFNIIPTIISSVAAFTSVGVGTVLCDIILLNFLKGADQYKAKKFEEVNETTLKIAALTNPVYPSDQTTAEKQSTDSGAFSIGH
Description: Calcium influx (Fluo-4) evoked by α,β-meATP in HEK293 cells stably expressing hP2X3R. Type of data set: cell-based. The note with it: for IC50: antagonistic activity, HEK293 cells expressing hP2X3R, agonist at EC70. On the procedure:
For the evaluation of P2XR activities, a cell-based assay system was employed to measure the level of fluorescence emission, based on Fluo-4 dye, during Ca^2+ influx evoked by αβmeATP in HEK293 cells stably expressing hP2X2/3R and hP2X3R. The library containing 8364 representative compounds for the screening of antagonistic activity was provided by the Korea Chemical Bank. The antagonistic activities were evaluated in the presence of P2X3R agonist of the concentration for EC70 value (200–250 nM for hP2X3R and 1–4 μM for hP2X2/3R highly expressed cell lines), and AF353 was used as the positive control antagonist for comparison. For the first round of screening, a single concentration (25 μM) of each library compound was tested to identify initial hit compounds, which were subsequently validated using both concentrations of 25 and 10 μM. Using a cut-off threshold of higher than 50% antagonistic activity and after confirming dose-dependency, 12 main hit compounds were selected.
3.4. Cell-Based Assay: Measurement of Calcium Influx by Fluorescence-Based Fluo-4 Dye Uptake in HEK293 Cells Expressing hP2X2/3 and hP2X3 Receptors
Human P2X3-expressing HEK293 cells were grown in DMEM supplemented with 10% fetal bovine serum and 1% antibiotic–antimycotic as a monolayer culture at 37 °C in a humidified atmosphere of 5% CO2. The 96-well black plates used in the experiments were prepared by coating them with 1× poly-D-lysine (A3890401, Thermo-Fisher Scientific Korea, Seoul, South Korea). An aliquot of 40 μL 1× poly-D-lysine was used to treat each of the wells in a flat orientation. After leaving the plates for at least 4 h to absorb the poly-D-lysine, the plates were allowed to dry for at least 6 h. The DMEM used in the culture of HEK293 cells was removed from the dish, followed by application of 3 mL 1× PBS for washing. Removal of 1× PBS was followed by application of 1 mL trypsin/EDTA, and the cells were collected by centrifugation at 1200 rpm for 2 min. The supernatant was removed, and 1 mL fresh DMEM added. The cells were resuspended in media and plates prepared with 4.8 × 10^4 cells/well in 56 μL/well. After 18 h of cell culture in the 96-well black plate, 56 μL of Fluo-4 dye (Fluo-4 Direct^TM Calcium Assay Kit, F10471, Invitrogen, Thermo-Fisher Scientific Korea, Seoul, South Korea) was added to each well, prepared according to the manufacturer’s protocol, and incubated for 50 min~1 h under culturing conditions. Then, 12.4 μL of the appropriate compound solution was added to each well, and the positive control was AF353 (A1612, Sigma Aldrich Korea, Seoul, South Korea) and the negative control was 5% DMSO. Plates were incubated at room temperature and sealed to avoid interference from light for 50 min~1 h. Flexstation 3 and its software provided by Molecular Devices was used for the measurement of fluorescence in real time of treatments using prepared α,β-meATP (M6517, Sigma Aldrich) solution to evoke calcium influx and increased cell membrane potential.
For the analysis of antagonistic activities, all data were calculated by Origin Pro 9.1 software provided by Originlab and the fitting of graphs was proceeded by the growth/sigmoidal and hill1 process within no weights for data selections. For the analysis of the behavioral assessments of pain models, all data are expressed as mean ± SEM. The dose–response data are presented as percentages of the maximum possible effect. Statistical significance was analyzed by independent t-test. The criterion for statistical significance was p < 0.05. The statistical analysis was performed using SPSS 25.0 software (IBM Corp., Armonk, NY, USA).

A short description of data set [2]: Metabolic stability in microsomal fraction, mouse. Type of data set: in vitro ADME. The note with it: mouse; Table 1.
Data set [3] is described as follows: Metabolic stability in microsomal fraction, rat. The note with it: Table 1. Type of data set: in vitro ADME.

As a reminder, the IC50 is the concentration at which inhibition is half-maximal. As to `Cc1nc2c([nH]1)C(=O)C(Cl)=C(Nc1ccc(F)cc1)C2=O` [10a, 6-Chloro-5-((4-fluorophenyl)amino)-2-methyl-1H-benzo[d]imidazole-4,7-dione], in data set [1], the “Metabolic Stability Human (%)” value is given as 43.1 ± 4.7%. Also, the IC50 on hP2X3R was determined as 4.91 ± 0.821 µM. For the same molecule, the “Decrease of P2X3R antagonistic activity compared with KCB-77033” value at hP2X3R (relative to hit compound KCB-77033) is recorded as 4–5 fold. In addition, the “Metabolic Stability Mouse (%)” value in data set [2] is 18.4 ± 2.7%. In data set [3], the “Metabolic Stability Rat (%)” value worked out at 26.2 ± 3.4%.
Turning to `Cc1nc2c([nH]1)C(=O)C(Cl)=C(Nc1ccc(F)c(F)c1)C2=O` [KCB-77033], in data set [1], the “Metabolic Stability Human (%)” value stood at 9.0 ± 1.5%. The IC50 on hP2X3R was found to be 1.03 ± 0.073 µM. Moreover, in data set [2], the “Metabolic Stability Mouse (%)” value is on record as 5.2 ± 1.6%. Besides, the “Metabolic Stability Rat (%)” value in data set [3] turned out to be 3.4 ± 0.1%.
Turning to `O=C1C(Cl)=C(Nc2ccc(F)cc2)C(=O)c2[nH]c(C(F)(F)F)nc21` [11a, 6-Chloro-5-((4-fluorophenyl)amino)-2-(trifluoromethyl)-1H-benzo[d]imidazole-4,7-dione], the “Metabolic Stability Human (%)” value in data set [1] turned out to be 81.4 ± 1.9%. Besides, on hP2X3R, the IC50 came out at 1.02 ± 0.111 µM. Moreover, in data set [2], the “Metabolic Stability Mouse (%)” value is listed as 95.7 ± 17.2%. Further, the “Metabolic Stability Rat (%)” value in data set [3] is over 99%.
Consider `CCC(=O)N1CCC(NC2=C(Cl)C(=O)c3[nH]c(C(F)(F)F)nc3C2=O)CC1` [14b, 6-Chloro-5-((1-propionylpiperidin-4-yl)amino)-2-(trifluoromethyl)-1H-benzo[d]imidazole-4,7-dione], for which the IC50 at hP2X3R was 0.921 ± 0.117 µM.
Still for that read-out and setting: to `O=C1C(Nc2ccc(Br)c(F)c2)=C(Cl)C(=O)c2[nH]c(C(F)(F)F)nc21` [11j, 5-((4-Bromo-3-fluorophenyl)amino)-6-chloro-2-(trifluoromethyl)-1H-benzo[d]imidazole-4,7-dione] belongs 0.782 ± 0.139 µM; to `O=C1C(Nc2ccc(Cl)cc2I)=C(Cl)C(=O)c2[nH]c(C(F)(F)F)nc21` [11k, 6-Chloro-5-((4-chloro-2-iodophenyl)amino)-2-(trifluoromethyl)-1H-benzo[d]imidazole-4,7-dione], 0.774 ± 0.166 µM; to `COC(=O)N1CCC(NC2=C(Cl)C(=O)c3[nH]c(C(F)(F)F)nc3C2=O)CC1` [14a, Methyl-4-((6-chloro-4,7-dioxo-2-(trifluoromethyl)-4,7-dihydro-1H-benzo[d]imidazol-5-yl)amino)piperidine-1-carboxylate], 0.979 ± 0.104 µM.
As to `O=C1C(Nc2ccc(F)cc2Cl)=C(Cl)C(=O)c2[nH]c(C(F)(F)F)nc21` [11e, 6-Chloro-5-((2-chloro-4-fluorophenyl)amino)-2-(trifluoromethyl)-1H-benzo[d]imidazole-4,7-dione], the IC50 at hP2X3R came out at 0.66 ± 0.113 µM.
On the same count and under the same terms, with `O=C1C(NC2CCN(C(=O)c3ccc(Cl)cc3)CC2)=C(Cl)C(=O)c2[nH]c(C(F)(F)F)nc21` [14e, 6-Chloro-5-((1-(4-chlorobenzoyl)piperidin-4-yl)amino)-2-(trifluoromethyl)-1H-benzo[d]imidazole-4,7-dione] the figure was 0.481 ± 0.02 µM; with `O=C1C(Nc2ccc(F)c(F)c2)=C(Cl)C(=O)c2[nH]c(C(F)(F)F)nc21` [11c, 6-Chloro-5-((3,4-difluorophenyl)amino)-2-(trifluoromethyl)-1H-benzo[d]imidazole-4,7-dione], 0.834 ± 0.117 µM.
